Source: patent publication US20140154332A1, “FORMULAS COMPRISING HIGHLY SOLUBLE ELEMENTS AND VITAMIN FOR THE PREVENTION AND AMELIORATION OF OSTEOPOROSIS” (SINOVEDA CANADA, INC., priority 2011, published 2014)

How the values were obtained:
[1] = dual isotope techniques; cited from earlier work
[2] = rats; cited from earlier work
[3] = humans; cited from earlier work
[4] = Calcium, magnesium and zinc balance study in rats receiving calcium free diet (cumulative net percentage, body weight, plasma levels); settings: for Cumulative net percentage of calcium / Cumulative net percentage of magnesium / Cumulative net percentage of zinc: n = 5 per group
Excerpt: (§1) Male Sprague-Dawley rats (about 6-7 weeks), with an initial weight between 220 g to 250 g, were randomly divided into different treatment groups. All the rats were housed in individual metabolic cages in a temperature-controlled room. Each rat received free access to the normal diet (Table 34) before the experiment. Both normal and calcium free diets (Table 34) were used in this set of studies. De-ionized water was provided ad libitum. All the rats were weighed before treatment.
(§2) Two sets of studies were performed: a normal diet and calcium free diet. In each study, there were seven treatment groups. […] Rats participating in the normal diet study received normal diet ad libitum throughout. Rats participating in the group of calcium free diet received the calcium free food ad libitum starting five days before and throughout treatment. In both study groups, animals received one dose a day for five days. Amounts of calcium, magnesium and zinc in individual formulation and in each diet were determined using ICP-OES. Values of dosage and dietary intake were measured for the calculation of elemental balance. […] Daily elemental dosages, similar to that of human's, are 53.14 mg/kg for calcium, 0.38 to 55 mg/kg/day for magnesium and 0.017 to 2.5 mg/kg/day for zinc. […] The vehicle for preparing each dose was de-ionized water. The concentration of calcium in all dosage preparations was 15.94 mg/mL. One mL of each preparation was administered by gavage. Body weight, elemental dosage and diet consumption were recorded daily.
(§3) Animals were housed individually in a metabolic cage five days before the study. Food consumption was evaluated daily. Urine and feces were collected daily for four days and the content of calcium, magnesium and zinc was determined. On Day 5, each animal received its treatment. These treatments were administered once a day for four days. After the last treatment, each animal was anesthetized shortly before peak elemental blood concentration was achieved. Blood was collected using a heparinized syringe via cardiac puncture. Immediately after blood collection, the animal was then sacrificed with an overdose of isoflourane. Each blood sample was centrifuged at 1900 rpm at room temperature; plasma was harvested and stored at −20° C. until analysis. Urine was measured daily; it was diluted with de-ionized water, filtered and an aliquot was stored at −20° C. until analysis. Daily fecal output was collected and lyophilized. Each sample was weighed and digested using a mixture of three volume of nitric acid and one volume of perchloric acid. For every gram of dried feces, 10 mL of acid mixture was added. Each sample was digested for three days. The volume of the digested sample was measured and an aliquot of the digest was stored at −20° C. until analysis. The content of calcium, magnesium and zinc in plasma, feces and urine were determined using ICP-OES.
(§4) Daily calcium balance was calculated using equation 1:
(§5) Ca Balance=total Ca intake(dose and dietary intake)−Ca excreted in urine−Ca excreted in feces (1)
(§6) While, percentage of Ca balance was determined using equation 2:
(§7) % Ca balance=Ca balance/(total Ca intake)×100% (2)
(§8) Cumulated calcium balance and % cumulated net calcium balance were calculated using equations (1) and (2), except, the sum of daily intake and excretion was used for calculation. The balance for magnesium and zinc was also calculated using the concept of equations (1) and (2). Cumulated elemental balance and % cumulated net elemental balance were calculated in a similar fashion as described above.
(§9) All results were analyzed using two-way ANOVA. […] The data are presented as mean±S.D. and mean±S.E.M. in tables and figures, respectively.

[5] = Calcium, magnesium and zinc balance study in rats receiving normal diet (cumulative net percentage, body weight, plasma levels); settings: for Body weight of rats: normal calcium diet, n = 5; for Cumulative net percentage of calcium / Cumulative net percentage of zinc / Net accumulative percentage of magnesium: normal diet, n = 5 per group
Excerpt: as §1, §2, §3, §4, §5, §6, §7, §8, §9

[6] = 25 mg calcium load, 45Ca; cited from earlier work

[O]=[Zn] [zinc oxide]
bioavailability of zinc [1]: approximately 24%

Magnesium gluconate
bioavailability of magnesium [2]: highest value

O=C([O-])[O-].[Ca+2] [calcium carbonate]
average amount absorbed [3]: 24%

Calcium Acetate [Ca ACE]
Cumulative net percentage of calcium ([4]; Day 1, mean ± S.D.): −30.6 ± 51.3% | Cumulative net percentage of magnesium ([4]; Day 1, mean ± S.D.): −197.2 ± 105.2% | Cumulative net percentage of zinc ([4]; Day 1, mean ± S.D.): −107.1 ± 85.5% | Body weight of rats ([4]; Day 1, n = 5): 202.4 ± 9.3 g | Cumulative net percentage of calcium ([4]; Day 2, mean ± S.D.): −9.88 ± 26.5% | Cumulative net percentage of magnesium ([4]; Day 2, mean ± S.D.): −150.4 ± 88.9% | Cumulative net percentage of zinc ([4]; Day 2, mean ± S.D.): −77.7 ± 59.0% | Body weight of rats ([4]; Day 2, n = 5): 194.8 ± 9.3^$ g | Cumulative net percentage of calcium ([4]; Day 3, mean ± S.D.): 4.88 ± 24.0% | Cumulative net percentage of magnesium ([4]; Day 3, mean ± S.D.): −115.3 ± 62.7% | Cumulative net percentage of zinc ([4]; Day 3, mean ± S.D.): −65.7 ± 66.7% | Body weight of rats ([4]; Day 3, n = 5): 196.8 ± 10.9 g | Cumulative net percentage of calcium ([4]; Day 4, mean ± S.D.): 11.1 ± 20.0% | Cumulative net percentage of magnesium ([4]; Day 4, mean ± S.D.): −93.6 ± 37.2% | Cumulative net percentage of zinc ([4]; Day 4, mean ± S.D.): −50.5 ± 46.4% | Body weight of rats ([4]; Day 4, n = 5): 193.4 ± 11.9^$ g | Body weight of rats ([4]; Day 5, n = 5): 188.0 ± 12.2^$ g | magnesium balance ([4]; rats): net loss of magnesium | Body weight of rats ([5]; Day 1, mean ± S.D.): 242.0 ± 7.4 g | Body weight of rats ([5]; Day 2, mean ± S.D.): 237.0 ± 12.5 g | Body weight of rats ([5]; Day 3, mean ± S.D.): 239.2 ± 13.9 g | Body weight of rats ([5]; Day 4, mean ± S.D.): 238.6 ± 13.9 g | Body weight of rats ([5]; Day 5, mean ± S.D.): 244.0 ± 12.8 g | Cumulative net percentage of calcium ([5]; Day 1, mean ± S.D.): 14.4 ± 24.0% | Cumulative net percentage of zinc ([5]; Day 1, mean ± S.D.): 27.5 ± 16.0^% | Net accumulative percentage of magnesium ([5]; Day 1, mean ± S.D.): 16.7 ± 17.2^% | Cumulative net percentage of calcium ([5]; Day 2, mean ± S.D.): 26.9 ± 9.0% | Cumulative net percentage of zinc ([5]; Day 2, mean ± S.D.): 40.9 ± 7.3% | Net accumulative percentage of magnesium ([5]; Day 2, mean ± S.D.): 29.9 ± 3.8% | Cumulative net percentage of calcium ([5]; Day 3, mean ± S.D.): 30.3 ± 4.9% | Cumulative net percentage of zinc ([5]; Day 3, mean ± S.D.): 45.6 ± 5.9% | Net accumulative percentage of magnesium ([5]; Day 3, mean ± S.D.): 34.3 ± 2.5% | Cumulative net percentage of calcium ([5]; Day 4, mean ± S.D.): 31.9 ± 3.0% | Cumulative net percentage of zinc ([5]; Day 4, mean ± S.D.): 48.4 ± 4.4% | Net accumulative percentage of magnesium ([5]; Day 4, mean ± S.D.): 37.7 ± 2.7% | Bioavailability of calcium [6]: 45%

calcium ascorbate
Bioavailability of calcium [6]: 70%
